Data from ChEMBL document CHEMBL1909046, “DrugMatrix in vitro pharmacology data”.

Key:
[1] = target: T1, Alpha-1D adrenergic receptor (Homo sapiens, UniProt P25100); format: cell membranes, HEK293, Membrane; also: in other assays of this panel Not Active means under 50% inhibition at 10 µM
T1 sequence (P25100 whole entry): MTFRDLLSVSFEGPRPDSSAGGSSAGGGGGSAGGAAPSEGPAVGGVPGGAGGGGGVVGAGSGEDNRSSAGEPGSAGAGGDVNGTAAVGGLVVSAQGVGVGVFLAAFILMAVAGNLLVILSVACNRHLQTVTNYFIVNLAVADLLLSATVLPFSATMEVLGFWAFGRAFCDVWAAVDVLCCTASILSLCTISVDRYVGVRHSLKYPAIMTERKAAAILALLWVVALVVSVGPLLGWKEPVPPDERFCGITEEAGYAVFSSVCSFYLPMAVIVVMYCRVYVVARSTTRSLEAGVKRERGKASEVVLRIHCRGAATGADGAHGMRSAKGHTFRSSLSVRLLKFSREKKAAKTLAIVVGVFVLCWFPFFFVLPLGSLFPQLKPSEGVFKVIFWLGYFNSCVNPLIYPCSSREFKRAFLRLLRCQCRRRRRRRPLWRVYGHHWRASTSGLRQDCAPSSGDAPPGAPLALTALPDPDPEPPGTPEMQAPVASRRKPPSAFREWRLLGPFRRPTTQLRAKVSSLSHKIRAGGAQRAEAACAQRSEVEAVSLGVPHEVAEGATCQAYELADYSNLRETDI

D(4) dopamine receptor = target: T2, D(4) dopamine receptor (Homo sapiens, UniProt P21917); assay: DRUGMATRIX: Dopamine D4.2 radioligand binding (ligand: [3H] Spiperone); format: cell membranes, CHO-K1, Membrane; conditions: cho-k1; Not Active = under 50% inhibition at 10 µM
T2 sequence (P21917 whole entry): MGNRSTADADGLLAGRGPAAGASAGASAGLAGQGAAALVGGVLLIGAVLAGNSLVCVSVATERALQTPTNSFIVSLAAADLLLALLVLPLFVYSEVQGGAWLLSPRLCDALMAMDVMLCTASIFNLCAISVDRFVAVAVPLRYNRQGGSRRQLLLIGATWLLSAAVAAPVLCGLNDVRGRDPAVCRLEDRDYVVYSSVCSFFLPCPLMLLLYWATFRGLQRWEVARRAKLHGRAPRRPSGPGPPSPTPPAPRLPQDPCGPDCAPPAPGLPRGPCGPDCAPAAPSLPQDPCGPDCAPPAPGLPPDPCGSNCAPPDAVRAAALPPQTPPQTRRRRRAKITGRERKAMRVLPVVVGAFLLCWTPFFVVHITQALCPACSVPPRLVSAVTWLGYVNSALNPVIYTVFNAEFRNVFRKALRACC

[2] = target: T3, Cholecystokinin receptor type A (Homo sapiens, UniProt P32238); format: cell membranes, Membrane; conditions: 1321-n1; also: in other assays of this panel Not Active means under 50% inhibition at 10 µM
T3 sequence (P32238 whole entry): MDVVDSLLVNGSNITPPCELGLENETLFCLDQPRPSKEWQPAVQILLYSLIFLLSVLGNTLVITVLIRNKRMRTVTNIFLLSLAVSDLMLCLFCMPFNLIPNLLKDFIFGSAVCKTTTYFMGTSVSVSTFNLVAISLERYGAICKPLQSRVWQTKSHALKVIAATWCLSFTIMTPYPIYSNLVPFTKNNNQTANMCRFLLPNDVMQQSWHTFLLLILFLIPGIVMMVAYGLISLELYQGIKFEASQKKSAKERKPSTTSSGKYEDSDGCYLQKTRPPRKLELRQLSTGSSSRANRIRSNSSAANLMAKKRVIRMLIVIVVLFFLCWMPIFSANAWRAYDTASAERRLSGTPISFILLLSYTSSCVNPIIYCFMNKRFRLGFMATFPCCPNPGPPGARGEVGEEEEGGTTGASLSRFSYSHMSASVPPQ

[3] = target: T4, Vasoactive intestinal polypeptide receptor 1 (Homo sapiens, UniProt P32241); format: cell membranes, Membrane; conditions: ht-29; also: in other assays of this panel Not Active means under 50% inhibition at 10 µM
T4 sequence (P32241 whole entry): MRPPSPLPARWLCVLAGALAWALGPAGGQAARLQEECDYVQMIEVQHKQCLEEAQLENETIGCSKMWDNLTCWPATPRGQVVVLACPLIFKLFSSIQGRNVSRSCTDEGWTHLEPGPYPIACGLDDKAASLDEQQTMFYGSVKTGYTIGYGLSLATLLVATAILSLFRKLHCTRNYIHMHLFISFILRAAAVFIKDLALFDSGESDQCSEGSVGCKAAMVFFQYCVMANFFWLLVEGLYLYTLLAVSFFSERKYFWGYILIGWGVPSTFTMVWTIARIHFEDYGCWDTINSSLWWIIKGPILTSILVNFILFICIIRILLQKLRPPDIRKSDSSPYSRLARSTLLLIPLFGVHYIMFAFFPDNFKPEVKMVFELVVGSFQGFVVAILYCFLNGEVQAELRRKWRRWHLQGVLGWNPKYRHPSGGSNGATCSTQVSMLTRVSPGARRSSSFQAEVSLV

Vasopressin V1a receptor = Vasopressin V1a receptor (Homo sapiens, UniProt P37288); format: cell membranes, Membrane; conditions: hek293; also: in other assays of this panel Not Active means under 50% inhibition at 10 µM
Chain of Vasopressin V1a receptor (P37288 whole entry): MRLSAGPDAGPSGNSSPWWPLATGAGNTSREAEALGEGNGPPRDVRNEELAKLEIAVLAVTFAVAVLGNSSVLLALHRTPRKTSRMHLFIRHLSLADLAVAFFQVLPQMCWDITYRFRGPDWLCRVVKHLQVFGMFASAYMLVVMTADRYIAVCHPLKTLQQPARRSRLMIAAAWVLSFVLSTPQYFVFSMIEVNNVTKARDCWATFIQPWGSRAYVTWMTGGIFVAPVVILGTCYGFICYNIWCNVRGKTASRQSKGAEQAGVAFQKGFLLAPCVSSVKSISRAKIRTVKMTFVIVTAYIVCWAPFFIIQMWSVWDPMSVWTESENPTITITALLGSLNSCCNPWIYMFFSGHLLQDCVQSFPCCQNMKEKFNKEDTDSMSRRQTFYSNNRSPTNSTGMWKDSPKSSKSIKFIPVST

[4] = target: T5, Muscarinic acetylcholine receptor M5 (Homo sapiens, UniProt P08912); format: cell membranes, CHO-K1, Membrane; also: in other assays of this panel Not Active means under 50% inhibition at 10 µM
T5 sequence (P08912 whole entry): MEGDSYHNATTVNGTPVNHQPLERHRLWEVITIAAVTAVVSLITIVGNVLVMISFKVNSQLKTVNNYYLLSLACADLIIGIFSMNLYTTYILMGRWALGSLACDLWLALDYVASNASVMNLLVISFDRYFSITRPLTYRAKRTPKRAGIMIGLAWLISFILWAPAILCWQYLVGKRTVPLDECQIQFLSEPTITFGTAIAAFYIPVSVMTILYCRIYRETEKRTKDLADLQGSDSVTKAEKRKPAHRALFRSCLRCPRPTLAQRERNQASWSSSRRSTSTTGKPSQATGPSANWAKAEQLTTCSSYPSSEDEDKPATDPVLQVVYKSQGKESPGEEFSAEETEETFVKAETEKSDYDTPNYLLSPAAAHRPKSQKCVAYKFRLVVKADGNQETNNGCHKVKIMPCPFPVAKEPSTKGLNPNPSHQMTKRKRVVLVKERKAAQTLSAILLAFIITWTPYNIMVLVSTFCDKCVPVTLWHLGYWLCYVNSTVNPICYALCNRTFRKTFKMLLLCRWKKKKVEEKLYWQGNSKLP

`OCCOCCN1CCN(C2=Nc3ccccc3Sc3ccccc32)CC1` [QUETIAPINE] was tested, and the IC50 ([1]; read-out: IC50) was 96.6 nM, the Ki ([1]; read-out: Ki) was 47.5 nM and the IC50 (D(4) dopamine receptor) was “Not Active”. For the same compound, the IC50 [2] was “Not Active”, the IC50 [3] was “Not Active” and the IC50 (Vasopressin V1a receptor) was “Not Active”.

In the case of `COC(=O)[C@H]1[C@H]2C[C@@H]3c4[nH]c5cc(OC)ccc5c4CCN3C[C@H]2C[C@@H](OC(=O)c2cc(OC)c(OC)c(OC)c2)[C@@H]1OC` [RESERPINE], the IC50 ([1]; hek293) is reported as “Not Active”, the IC50 (D(4) dopamine receptor) is reported as “Not Active” and the IC50 [2] is reported as “Not Active”. For the same compound, the IC50 [3] was “Not Active”, the IC50 (Vasopressin V1a receptor) was “Not Active” and the IC50 ([4]; cho-k1) was “Not Active”.

For `O=C(O)c1ccccc1O` [SALICYLIC ACID], the IC50 ([1]; hek293) was “Not Active”, the IC50 (D(4) dopamine receptor) was “Not Active” and the IC50 [2] was “Not Active”. The IC50 [3] was “Not Active”, the IC50 (Vasopressin V1a receptor) was “Not Active” and the IC50 ([4]; cho-k1) was “Not Active”.

`C[S+]([O-])c1ccc(-c2nc(-c3ccncc3)c(-c3ccc(F)cc3)[nH]2)cc1` (centres undefined) [SB-203580] was tested, and the IC50 ([1]; hek293) was “Not Active”, the IC50 (D(4) dopamine receptor) was “Not Active” and the IC50 [2] was “Not Active”. For the same compound, the IC50 [3] was “Not Active”, the IC50 (Vasopressin V1a receptor) was “Not Active” and the IC50 ([4]; cho-k1) was “Not Active”.

With `CC1CCC(NC(=O)N(CCCl)N=O)CC1` (centres undefined) [SEMUSTINE] the IC50 ([1]; hek293) was “Not Active”, the IC50 (D(4) dopamine receptor) was “Not Active” and the IC50 [2] was “Not Active”. The IC50 [3] was “Not Active”, the IC50 (Vasopressin V1a receptor) was “Not Active” and the IC50 ([4]; cho-k1) was “Not Active”.

`O=C1C[C@@H]2OCC=C3CN4CC[C@]56c7ccccc7N1[C@H]5[C@H]2[C@H]3C[C@H]46` [STRYCHNINE] was tested, and the IC50 ([1]; hek293) was “Not Active”, the IC50 (D(4) dopamine receptor) was “Not Active” and the IC50 [2] was “Not Active”. For the same compound, the IC50 [3] was “Not Active”, the IC50 (Vasopressin V1a receptor) was “Not Active” and the IC50 ([4]; cho-k1) was “Not Active”.

In the case of `C[N+](C)(C)CCOC(=O)CCC(=O)OCC[N+](C)(C)C.[Cl-].[Cl-]` [SUCCINYLCHOLINE CHLORIDE], the IC50 ([1]; hek293) is reported as “Not Active”, the IC50 (D(4) dopamine receptor) is reported as “Not Active” and the IC50 [2] is reported as “Not Active”. For the same compound, the IC50 [3] was “Not Active”, the IC50 (Vasopressin V1a receptor) was “Not Active” and the IC50 ([4]; cho-k1) was “Not Active”.

With `Nc1ccc(S(=O)(=O)NC(=O)c2ccccc2)cc1` [SULFABENZAMIDE] the IC50 ([1]; hek293) was “Not Active”, the IC50 (D(4) dopamine receptor) was “Not Active” and the IC50 [2] was “Not Active”. For the same compound, the IC50 [3] was “Not Active”, the IC50 (Vasopressin V1a receptor) was “Not Active” and the IC50 ([4]; cho-k1) was “Not Active”.

For `CCCCCCCCNC(C)C(O)c1ccc(SC(C)C)cc1` (centres undefined) [SULOCTIDIL], the IC50 ([1]; hek293) was “Not Active”, the IC50 (D(4) dopamine receptor) was “Not Active” and the IC50 [2] was “Not Active”. The IC50 [3] was “Not Active”, the IC50 (Vasopressin V1a receptor) was “Not Active” and the IC50 ([4]; read-out: IC50) was 4490 nM. The Ki ([4]; read-out: Ki) was 3220 nM.

In the case of `O=c1[nH]c(=O)n(C2CCCO2)cc1F` (centres undefined) [TEGAFUR], the IC50 ([1]; hek293) is reported as “Not Active”, the IC50 (D(4) dopamine receptor) is reported as “Not Active” and the IC50 [2] is reported as “Not Active”. For the same compound, the IC50 [3] was “Not Active”, the IC50 (Vasopressin V1a receptor) was “Not Active” and the IC50 ([4]; cho-k1) was “Not Active”.

With `CC(=N)S` [THIOACETAMIDE] the IC50 ([1]; hek293) was “Not Active”, the IC50 (D(4) dopamine receptor) was “Not Active” and the IC50 [2] was “Not Active”. The IC50 [3] was “Not Active”, the IC50 (Vasopressin V1a receptor) was “Not Active” and the IC50 ([4]; cho-k1) was “Not Active”.

In the case of `Cc1ccc(C(=O)c2ccc(CC(=O)O)n2C)cc1` [TOLMETIN], the IC50 ([1]; hek293) is reported as “Not Active”, the IC50 (D(4) dopamine receptor) is reported as “Not Active” and the IC50 [2] is reported as “Not Active”. The IC50 [3] was “Not Active”, the IC50 (Vasopressin V1a receptor) was “Not Active” and the IC50 ([4]; cho-k1) was “Not Active”.

In the case of `CC(=O)OCC(COC(C)=O)OC(C)=O` [TRIACETIN], the IC50 ([1]; hek293) is reported as “Not Active”, the IC50 (D(4) dopamine receptor) is reported as “Not Active” and the IC50 [2] is reported as “Not Active”. The IC50 [3] was “Not Active”, the IC50 (Vasopressin V1a receptor) was “Not Active” and the IC50 ([4]; cho-k1) was “Not Active”.
